# What was measured:
# purple nutsedge = test: Test D purple nutsedge; type: in vivo, Cyperus rotundus; conditions: Preemergence, 0 to 100 scale
# Procedure, shortened: (§1)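 Scoring used a 0–100 visual injury scale, with 0 meaning no effect and 100 complete control, assessed 14–21 days after application alongside untreated pots. Preemergence treatments went onto sandy loam surfaces of separately potted seeds within a day of sowing.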
# guineagrass = test: Test D guineagrass; type: in vivo, Panicum maximum; conditions: Preemergence, 0 to 100 scale
# Procedure, shortened: as §1
# common pursiane = test: Test D common purslane; type: in vivo, Portulaca oleracea; conditions: Preemergence, 0 to 100 scale
# Procedure, shortened: as §1
# large crabgrass = test: Test D large crabgrass; type: in vivo, Digitaria sanguinalis; conditions: Preemergence, 0 to 100 scale
# Procedure, shortened: as §1
# Spanishneedles = test: Test D Spanishneedles; type: in vivo, Bidens bipinnata; conditions: Preemergence, 0 to 100 scale
# Procedure, shortened: as §1
# surinam grass = test: Test D surinam grass; type: in vivo, Brachiaria decumbens; conditions: Preemergence, 0 to 100 scale
# Procedure, shortened: as §1
# pitted morningglory = test: Test D pitted morningglory; type: in vivo, Ipomoea lacunosa; conditions: Preemergence, 0 to 100 scale
# Procedure, shortened: as §1
# itchgrass = test: Test D itchgrass; type: in vivo, Rottboellia exaltata; conditions: Preemergence, 0 to 100 scale
# Procedure, shortened: as §1
# Johnson grass = test: Test D Johnson grass; type: in vivo, Sorghum halepense; conditions: Preemergence, 0 to 100 scale
# Procedure, shortened: as §1
# Green foxtail = test: Test D green foxtail; type: in vivo; conditions: Preemergence, 0 to 100 scale
# Procedure, shortened: as §1
# Alexandergrass = test: Test D Alexandergrass; type: in vivo, Brachiaria plantaginea; conditions: Preemergence, 0 to 100 scale
# Procedure, shortened: as §1
# dallisgrass = test: Test D dallisgrass; type: in vivo, Paspalum dilatatum; conditions: Preemergence, 0 to 100 scale
# Procedure, shortened: as §1
# common ragweed = test: Test D common ragweed; type: in vivo, Ambrosia elatior; conditions: Preemergence, 0 to 100 scale
# Procedure, shortened: as §1
# tall mallow = test: Test D tall mallow; type: in vivo, Malva sylvestris; conditions: Preemergence, 0 to 100 scale
# Procedure, shortened: as §1
# bermuda-grass = test: Test D bermudagrass; type: in vivo, Cynodon dactylon; conditions: Preemergence, 0 to 100 scale
# Procedure, shortened: as §1
# chickweed = test: Test E chickweed; type: in vivo, Stellaria media; conditions: Preemergence, Rate 250 g/ha; 0 to 100 scale
# sandbur = test: Test D sandbur; type: in vivo, Cenchrus echinatus; conditions: Preemergence, 0 to 100 scale
# Procedure, shortened: as §1
# common groundsel = test: Test D common groundsel; type: in vivo, Senecio vulgaris; conditions: Preemergence, 0 to 100 scale
# Procedure, shortened: as §1
# [1] = Rate 16 g/ha, 0 no injury, 100 complete control
# [2] = Rate 32 g/ha, 0 no injury, 100 complete control
# [3] = Rate 64 g/ha, 0 no injury, 100 complete control
# [4] = Rate 125 g/ha, 0 no injury, 100 complete control
smiles,measurement,setting,value
C=CCn1c(=O)on(C(=O)N(c2ccc(Cl)cc2)C(C)C)c1=O [Compound 105],"Plant response rating, Purple nutsedge",purple nutsedge; [1],0
same,"Plant response rating, Purple nutsedge",purple nutsedge; [2],0
same,Purple nutsedge plant response rating,purple nutsedge; [3],0
same,Purple nutsedge plant response rating,purple nutsedge; [4],0
same,"Plant response rating, Purple nutsedge",purple nutsedge; Rate 250 g/ha,0
same,"Plant response rating, Purple nutsedge",purple nutsedge; Rate 500 g/ha,75
same,"Plant response rating, Guineagrass",guineagrass; [1],40
same,"Plant response rating, Guineagrass",guineagrass; [2],85
same,"Plant response rating, Guineagrass",guineagrass; [3],98
same,"Plant response rating, Guineagrass",guineagrass; [4],98
same,"Plant response rating, Guineagrass",guineagrass; Rate 250 g/ha,100
same,"Plant response rating, Guineagrass",guineagrass; Rate 500 g/ha,100
same,"Plant response rating, C. purslane",common pursiane; [1],0
same,"Plant response rating, C. purslane",common pursiane; [2],0
same,"Plant response rating, C. purslane",common pursiane; [3],0
same,"Plant response rating, C. purslane",common pursiane; [4],0
same,"Plant response rating, C. purslane",common pursiane; Rate 250 g/ha,0
same,"Plant response rating, C. purslane",common pursiane; Rate 500 g/ha,0
same,Plant response rating Large crabgrass,large crabgrass; [1],40
same,Plant response rating Large crabgrass,large crabgrass; [2],98
same,Plant response rating Large crabgrass,large crabgrass; [3],100
same,Plant response rating Large crabgrass,large crabgrass; [4],100
same,Plant response rating Large crabgrass,large crabgrass; Rate 250 g/ha,100
same,Plant response rating Large crabgrass,large crabgrass; Rate 500 g/ha,100
same,"Plant response rating, Spanishneedles",Spanishneedles; [1],0
same,"Plant response rating, Spanishneedles",Spanishneedles; [2],0
same,Spanishneedles plant response rating,Spanishneedles; [3],0
same,Spanishneedles plant response rating,Spanishneedles; [4],0
same,"Plant response rating, Spanishneedles",Spanishneedles; Rate 500 g/ha,0
same,"Plant response rating, Surinam grass",surinam grass; [1],0
same,"Plant response rating, Surinam grass",surinam grass; [2],0
same,Surinam grass plant response rating,surinam grass; [3],0
same,Surinam grass plant response rating,surinam grass; [4],40
same,"Plant response rating, Surinam grass",surinam grass; Rate 250 g/ha,98
same,"Plant response rating, Surinam grass",surinam grass; Rate 500 g/ha,100
same,"Plant response rating, P. morninglory",pitted morningglory; [1],0
same,"Plant response rating, P. morninglory",pitted morningglory; [2],0
same,"Plant response rating, P. morninglory",pitted morningglory; [3],0
same,"Plant response rating, P. morninglory",pitted morningglory; [4],0
same,"Plant response rating, P. morninglory",pitted morningglory; Rate 250 g/ha,0
same,"Plant response rating, P. morninglory",pitted morningglory; Rate 500 g/ha,0
same,"Plant response rating, Itchgrass",itchgrass; [1],0
same,"Plant response rating, Itchgrass",itchgrass; [2],0
same,"Plant response rating, Itchgrass",itchgrass; [3],20
same,"Plant response rating, Itchgrass",itchgrass; [4],20
same,"Plant response rating, Itchgrass",itchgrass; Rate 250 g/ha,85
same,"Plant response rating, Itchgrass",itchgrass; Rate 500 g/ha,85
same,Plant response rating Johnsongrass,Johnson grass; [1],0
same,Plant response rating Johnsongrass,Johnson grass; [2],0
same,Plant response rating Johnsongrass,Johnson grass; [3],0
same,Plant response rating Johnsongrass,Johnson grass; [4],20
same,Plant response rating Johnsongrass,Johnson grass; Rate 250 g/ha,75
same,Plant response rating Johnsongrass,Johnson grass; Rate 500 g/ha,90
same,"Plant response rating, Green foxtail",Green foxtail; Rate 250 g/ha,100
same,"Plant response rating, Green foxtail",Green foxtail; Rate 500 g/ha,100
same,"Plant response rating, Alexandergrass",Alexandergrass; [1],0
same,"Plant response rating, Alexandergrass",Alexandergrass; [2],30
same,"Plant response rating, Alexandergrass",Alexandergrass; [3],85
same,"Plant response rating, Alexandergrass",Alexandergrass; [4],98
same,"Plant response rating, Alexandergrass",Alexandergrass; Rate 250 g/ha,98
same,"Plant response rating, Alexandergrass",Alexandergrass; Rate 500 g/ha,100
same,"Plant response rating, Dallisgrass",dallisgrass; [1],60
same,"Plant response rating, Dallisgrass",dallisgrass; [2],98
same,"Plant response rating, Dallisgrass",dallisgrass; [3],98
same,"Plant response rating, Dallisgrass",dallisgrass; [4],100
same,"Plant response rating, Dallisgrass",dallisgrass; Rate 250 g/ha,100
same,"Plant response rating, Dallisgrass",dallisgrass; Rate 500 g/ha,100
same,"Plant response rating, C. ragweed",common ragweed; [1],0
same,"Plant response rating, C. ragweed",common ragweed; [2],0
same,"Plant response rating, C. ragweed",common ragweed; [3],0
same,"Plant response rating, C. ragweed",common ragweed; [4],0
same,"Plant response rating, C. ragweed",common ragweed; Rate 250 g/ha,0
same,"Plant response rating, C. ragweed",common ragweed; Rate 500 g/ha,0
same,"Plant response rating, Tall Mallow",tall mallow; [1],0
same,"Plant response rating, Tall Mallow",tall mallow; [2],0
same,Tall Mallow plant response rating,tall mallow; [3],0
same,"Plant response rating, Tall Mallow",tall mallow; [4],40
same,Tall Mallow plant response rating,tall mallow; [4],45
same,"Plant response rating, Tall Mallow",tall mallow; Rate 250 g/ha,75
same,"Plant response rating, Tall Mallow",tall mallow; Rate 500 g/ha,75
same,"Plant response rating, Bermudagrass",bermuda-grass; [1],85
same,"Plant response rating, Bermudagrass",bermuda-grass; [2],98
same,"Plant response rating, Bermudagrass",bermuda-grass; [3],98
same,"Plant response rating, Bermudagrass",bermuda-grass; [4],100
same,"Plant response rating, Bermudagrass",bermuda-grass; Rate 250 g/ha,100
same,"Plant response rating, Bermudagrass",bermuda-grass; Rate 500 g/ha,100
same,"Plant response rating, Chickweed",chickweed,85
same,"Plant response rating, Sandbur",sandbur; [1],0
same,"Plant response rating, Sandbur",sandbur; [2],0
same,Sandbur plant response rating,sandbur; [3],0
same,Sandbur plant response rating,sandbur; [4],0
same,"Plant response rating, Sandbur",sandbur; Rate 250 g/ha,98
same,"Plant response rating, Sandbur",sandbur; Rate 500 g/ha,100
same,"Plant response rating, Com. groundsel",common groundsel; [1],0
same,"Plant response rating, Com. groundsel",common groundsel; [2],0
same,"Plant response rating, Com. groundsel",common groundsel; [3],0
same,"Plant response rating, Com. groundsel",common groundsel; [4],0
same,"Plant response rating, Com. groundsel",common groundsel; Rate 250 g/ha,0
same,"Plant response rating, Com. groundsel",common groundsel; Rate 500 g/ha,80

# Source: patent US6737383B1, “Herbicidal oxadiazolidines” (priority 1999, dated 2004)
